Consider 7 molecules from paper PMC9189929, “Synthesis, Screening and Characterization of Novel Potent Arp2/3 Inhibitory Compounds Analogous to CK-666” (Frontiers in Pharmacology, 2022).

The test system of series [1] is B16-F1 cells. Briefly: Wound healing (cell migration) of B16-F1 cells. Format: cell-based, mouse. The note with it: for Inhibition of cell migration (wound healing) compared with 100 µM CK-666: compound at 25 µM. The procedure:
For the wound healing, B16-F1 cells were seeded onto 8-well Ibidi dishes coated with laminin, and grown to confluence. Wounds in the cell monolayer were obtained by scratching the monolayer with a pipet tip. Detached cells were immediately washed away and new medium containing the various compounds was added. Cells were then used for videomicroscopy.
Videomicroscopy was performed on an inverted Axio Observer microscope (Zeiss) equipped with a Pecon Zeiss incubator XL multi S1 RED LS (Heating Unit XL S, Temp module, CO2 module, Heating Insert PS and CO2 cover), Definite focus module and a Hamamatsu camera C10600 Orca-R2. Phase contrast images were taken every 30 min for 24 h using the 10X/0.25 Plan-Apochromat air objective. For immunofluorescence, slides were observed and imaged with the 63X/1.4 Plan-Apochromat oil objective. Fluorophores were excited with the HBO 100 W lamp (Osram) installed in the HXP 120 Metal halide fluorescence light source (Zeiss).
(§1) Image analysis was performed in ImageJ or FIJI software. To measure wound healing, boundaries of the wound were drawn manually at different time points, then wound size was measured.

The next series deals with T1, Arp2/3 (Bos taurus, UniProt A7MB62+P61157).
T1 construct: purchased Cytoskeleton, Inc
In words: Pyrene-actin polymerization assay. The series is classed as biochemical, bovine. The settings on record: for IC50: 1.5 μM actin (10% pyrenyl-labeled), read-out: IC50 of Arp2/3-mediated actin polymerization; for IC50 / Arp2/3 inhibition reached at saturation: 20 nM Arp2/3, 250 nM N-WASP VCA; for Arp2/3 inhibition reached at saturation: 1.5 μM actin. The procedure: Actin was purified from rabbit muscle and was pyrenyl-labeled ([Carlier et al., 1984]; [Malm, 1984]). Arp2/3 was from Cytoskeleton, Inc. VCA domain of N-WASP was purified as previously described ([Clainche et al., 2003]). Pyrene-actin polymerization assays were performed as previously ([Romero et al., 2007]). Briefly, CaATP-actin was converted into MgATP-actin in (5 mM Tris, 0.2 mM ATP, 0.1 mM CaCl2, 1 mM DTT, 1 mM MgCl2, and 0.2 mM EGTA, pH 7.6) and kept on ice for no more than 1 h. Actin polymerization was monitored in (5 mM Tris, 50 mM KCl, 0.2 mM ATP, 0.1 mM CaCl2, 1 mM DTT, 1 mM MgCl2, 0.2 mM EGTA, pH 7.6) in the presence of 2% DMSO alone or 2% DMSO containing the appropriated compound concentration. The increase in fluorescence of 10% pyrenyl-labeled actin was monitored using a Safas spectrofluorimeter (λexc = 366 nm, λem = 407 nm). The maximum rate of actin polymerization was derived from the maximum slope of the polymerization curve multiplied by [total polymer]/(RFUmax—RFUmin) [total polymer] is the total actin minus the critical concentration (0.1 μM) and RFU, Relative Fluorescence Unit. The maximum elongation rates of actin polymerization were plotted as a function of the concentration of the different compounds. For CK-666, 59, 69 and 71, curves were fitted with the following equation to determine the IC50. Mrate= Rmax−Rmax−Rmin/1+IC50/(Compound Conc.) where Mrate is the measured maximum rate of actin polymerization at a given compound concentration, Rmax is the maximum rate of actin polymerization with no compound, and Rmin is the maximum rate of actin polymerization at saturating concentration of compound.
The curve of compound 15 was fitted with a linear decay. The IC50 was determined at half inhibition of actin polymerization.

Series [2] has as its system B16-F1 cells. Briefly: Lamellipodium formation in B16-F1 cells (cortactin immunofluorescence). The series is classed as cell-based, mouse. The settings on record: for Inhibition of lamellipodium formation: 100 μM, 1 h; for Dose-dependent inhibition of lamellipodium formation, potency relative to CK-666: dose-dependent assay (Figure 2D). Here is the method:
Lyophilized compounds were resuspended with fresh DMSO from sealed vials (cell biology grade). Compounds, stored at +4°C, were used within a week. B16-F1 cells were seeded onto glass coverslips coated for 1 h with 25 μg/ml laminin (Sigma) in (50 mM Tris, 150 mM NaCl, pH 7.4). […] Cell were then processed for immunofluorescence.
Cells were fixed in 3.2% PFA on PBS, then quenched with 50 mM NH4Cl and permeabilised with 0.5% Triton X-100. After blocking in 2% BSA cells were incubated with antibodies (1–5 μg/ml for the primary, 5 μg/ml for the secondary). Total actin in cells was visualized by phalloidin staining. Nuclei were stained with 0.3 μg/ml DAPI (Roche). Coverslips were mounted in Dako Fluorescence Mounting Medium (Agilent). For immunofluorescence, ARPC2 rabbit polyclonal antibody (Millipore, 07–227), Cortactin mouse monoclonal 4F11 (Millipore, 05–180) were used. Secondary goat anti-mouse and anti-rabbit antibodies conjugated with Alexa Fluor 555 and 647 respectively were from Life Technologies. Phalloidin conjugated with Alexa Fluor 488 was from Tebu-bio.
as §1

The test system of the next series is MCF10A cells. In words: EdU incorporation / cell cycle progression screen in MCF10A cells. Format: cell-based, human. The settings on record: for Outcome of EdU incorporation screen: 0.025 to 100 μM; for IC50: Homo sapiens, MCF-10A, 18 h treatment, rough values from Figure 1 graphs, read-out: IC50 (concentration required for 50% decrease of EdU-positive cells). Here is the method:
For cell cycle progression using EdU, MCF10A cells were seeded in 384-well plates at a density of 800 cells per well. […] EdU from kit C10337 (ThermoFischer Scientific, Waltham, MA, United States) was then added to the cells at 10 μM and incubated for 2.5 h. Cells were fixed in 4% paraformaldehyde for 30 min at room temperature. Click-iT reaction was performed for 1 h at room temperature, protected from light, with 5 µM Alexa Fluor 488 azide in (100 mM Tris, 1 mM CuSO4, 50 mM Ascorbic Acid, pH 8.5). Nuclei were counterstained with Hoechst 33,342 (Thermo Fisher Scientific). Imaging and analysis were performed using the ImageXpress Micro XL High-Content Screening System (Molecular Devices LLC, San Jose, CA, United States). IC50 values were determined by sigmoidal curve fitting using GraphPad Prism six software.

The next series concerns sea urchin embryos. Briefly: Sea urchin embryo development assay. Format: in vivo, Paracentrotus lividus. The settings on record: for Effect on archenteron elongation / Effect on primary mesenchyme cell (PMC) migration: observed up to four-arm mid-pluteus stage. The procedure:
The procedure was described in detail in [Semenova et al., 2018]. Briefly, adult sea urchins, Paracentrotus lividus L (Echinidae), were collected from the Mediterranean Sea on the Cyprus coast and kept in an aerated seawater tank. Gametes were obtained by intracoelomic injection of 0.5 M KCl. Eggs were washed with filtered seawater and fertilized by adding drops of diluted sperm. Embryos were cultured at room temperature under gentle agitation with a motor-driven plastic paddle (60 rpm) in filtered seawater. […] For treatment with test compounds, 5 ml aliquots of embryo suspension were transferred to six-well plates and incubated at a concentration of 1,000–2,000 embryos/ml. For images, sedimented embryos were concentrated in the center of the well by gentle rotation of the culture plate, and 200 μl aliquots containing several hundred embryos were used to take pictures (up to 20 images from different fields). Embryos selected for Figure 4 were representative of the population.
(§2) Stock solutions of compounds were prepared in DMSO at 50–250 mM concentration followed by a 10-fold dilution with 96% EtOH. This procedure enhanced the solubility of the test compounds in the salty seawater. Maximal tolerated concentrations of DMSO and EtOH in the assay were determined to be 0.05 and 1%, respectively. Higher concentrations of either DMSO (>0.1%) or EtOH (>1%) caused nonspecific alterations and retardation of the sea urchin embryo development independent of the treatment stage. Maximum solubility of compounds 15, 59, 69, and 71 was about 5–20 mM in seawater, since visible crystals formed at higher concentrations.
The effects were assessed after exposure of fertilized eggs (8–15 min post fertilization, 45–55 min before the first mitotic cycle completion) to 2-fold decreasing concentrations of the compound. Embryonic development was monitored until the beginning of active feeding at four-arm pluteus stage (33–36 h postfertilization). Developmental abnormalities were estimated quantitatively as minimal effective concentration (MEC), resulting in inhibition of archenteron elongation or skeletal spicule formation.

The nature of series [3]: Maximum solubility in seawater. The series is classed as physicochemical. The settings on record: saline or isotonic, kinetic from dmso stock, visible crystals formed at higher concentrations. Here is the method: as §2
The mark [4] stands for this setting: treated at zygote stage, monitored to four-arm pluteus.

In brackets after ≈: the same amount, converted by molar mass. Entries after “also recorded” stand apart in the source; their conditions may differ.

With `COCC(=O)NCCc1c[nH]c2ccccc12` [CK-689, N-(2-(1H-Indol-3-yl)ethyl)-2-methoxy-acetamide, reference compound], in the series on B16-F1 cells [1] (100 µM), the “Inhibition of wound healing” value is given as “but not CK-689, inhibits wound healing”. Also, at Arp2/3 (pyrene-actin assay), the “Activity against Arp2/3 in vitro” value was “inactive”. Besides, the “Inhibition of lamellipodium formation” value with B16-F1 cells [2] was “formed a single wide lamellipodium encompassing most cell perimeter”.

For the molecule `Cc1[nH]c2ccccc2c1CCNC(=O)c1cc([N+](=O)[O-])ccc1Cl` [Compound 12, 2-Chloro-N-[2-(2-methyl-1H-indol-3-yl)ethyl]-5-nitrobenzamide], in the series with MCF10A cells, the “Outcome of EdU incorporation screen” value is given as “scored positive” and the IC50 was 13.8 µM. For the same molecule, in the series on B16-F1 cells [2], the “Inhibition of lamellipodium formation” value was “significantly less active than CK-666”.

The solubility is the concentration that dissolves in the medium under given conditions. A higher solubility goes with a readily soluble substance. As to `Cc1[nH]c2ccccc2c1CCNC(=O)c1ccccc1C(=O)c1ccccc1` [Compound 15, 2-Benzoyl-N-[2-(2-methyl-1H-indol-3-yl)ethyl]benzamide], the “Cell rounding and detachment in wound healing assay” value (shortened to “Cell rounding and detachment”) is listed as “not observed” with B16-F1 cells [1] (25 µM) and “induced cell rounding followed by detachment from the substrate” in the series on B16-F1 cells [1] (100 µM). Also, in the series on B16-F1 cells [1], the “Inhibition of cell migration (wound healing) compared with 100 µM CK-666” value (“Inhibition … compared with 100 µM CK-666” below) was “inhibited cell migration as efficiently as 100 µM CK-666”. Moreover, the Developmental abnormality result in the series with sea urchin embryos (5 μM) is given as “suppressed plutei growth”; in the series on sea urchin embryos (20 μM) it was “Non-specific defects; also recorded: defective gastrulation was observed”. Also, in the series on sea urchin embryos (setting [4]), the “Minimum effective concentration, Systemic Toxicity” value came to 5 µM. In addition, the solubility in series [3] fell in the range of 5 to 20 µM (≈ 1.91 to 7.65 µg/mL). Further, the results for the IC50 on Arp2/3 and in the series with MCF10A cells were 104 µM and 20 µM, respectively. In addition, the “Arp2/3 inhibition reached at saturation” value on Arp2/3 was determined as 100%. The “Outcome of EdU incorporation screen” value with MCF10A cells is recorded as “scored positive”. Further, the “Dose-dependent inhibition of lamellipodium formation, potency relative to CK-666” value in the series with B16-F1 cells [2] is “significantly more potent than CK-666”.

Consider `CCc1cc2cc(C(=O)NCCc3c(C)[nH]c4ccc(C)cc34)sc2s1` [Compound 24, N-[2-(2,5-Dimethyl-1H-indol-3-yl)ethyl]-5-ethylthieno[2,3-b]thiophene-2-carboxamide], for which, in the series on MCF10A cells, the “Outcome of EdU incorporation screen” value was “scored positive” and the IC50 was 4.01 µM. Besides, the “Inhibition of lamellipodium formation” value in the series on B16-F1 cells [2] was “significantly less active than CK-666”.

`Cc1ccc2[nH]c(C)c(CCNC(=O)c3ccc(C(=O)c4ccccc4)o3)c2c1` [Compound 30, 5-Benzoyl-N-[2-(2,5-dimethyl-1H-indol-3-yl)ethyl]-2-furamide]: in the series on MCF10A cells, the “Outcome of EdU incorporation screen” value was “scored positive” and the IC50 was determined as 0.696 µM. Further, the “Inhibition of lamellipodium formation” value with B16-F1 cells [2] is “significantly less active than CK-666”.

As for `Cc1[nH]c2ccc(OCc3ccccc3)cc2c1CCNC(=O)c1cccc(Br)c1` [Compound 59, N-{2-[5-(Benzyloxy)-2-methyl-1H-indol-3-yl]ethyl}-3-bromobenzamide], the “Cell rounding and detachment” value in the series with B16-F1 cells [1] (25 µM) is on record as “not observed”. Also, the “Cell rounding and detachment” value in the series with B16-F1 cells [1] (100 µM) was “to a lesser extent 59 induced cell rounding followed by detachment from the substrate”. Besides, the “Inhibition … compared with 100 µM CK-666” value with B16-F1 cells [1] is on record as “more active than CK-666”. In the series on sea urchin embryos, the “Effect on archenteron elongation” value is given as “inhibited elongation of the archenteron at approximately half-size”; the “Effect on primary mesenchyme cell (PMC) migration” value was “altered PMC migration resulting in the lack of ventrolateral clusters and spicules”. In the series on sea urchin embryos (setting [4]), the “Minimum effective concentration, Inhibition of Archenteron elongation” value was 10 µM and the “Minimum effective concentration, Inhibition of Spicule formation” value worked out at 5 µM. This molecule displayed a solubility in series [3] of 5 to 20 µM (≈ 2.32 to 9.27 µg/mL). For the same molecule, at Arp2/3, the IC50 came to 180 µM and the “Arp2/3 inhibition reached at saturation” value is recorded as “saturation was not reached”. In addition, in the series with MCF10A cells, the “Outcome of EdU incorporation screen” value is “scored positive” and the IC50 was 11.5 µM. Besides, the “Dose-dependent inhibition of lamellipodium formation, potency relative to CK-666” value in the series with B16-F1 cells [2] was “slightly less active than CK-666”.

As for `Cc1[nH]c2c(Cl)cccc2c1CCNC(=O)c1cc(S(=O)(=O)N(C)C)c(Cl)cc1Cl` [Compound 69, 2,4-Dichloro-N-[2-(7-chloro-2-methyl-1H-indol-3-yl)ethyl]-5-[(dimethylamino)sulfonyl]benzamide], the “Inhibition … compared with 100 µM CK-666” value in the series with B16-F1 cells [1] is recorded as “inhibited cell migration as efficiently as 100 µM CK-666”. In addition, in the series on sea urchin embryos (12 μM, 22°C), the Developmental phenotype entry is recorded as “Defective gastrulation”. Also, in the series with sea urchin embryos, the “Effect on archenteron elongation” value is given as “inhibited elongation of the archenteron at approximately half-size”; the “Effect on primary mesenchyme cell (PMC) migration” value was “altered PMC migration resulting in the lack of ventrolateral clusters and spicules”. Besides, in the series with sea urchin embryos (setting [4]), the “Minimum effective concentration, Inhibition of Archenteron elongation” value came out at 5 µM and the “Minimum effective concentration, Inhibition of Spicule formation” value was 5 µM. In series [3], this molecule had a solubility of 5 to 20 µM (≈ 2.44 to 9.78 µg/mL). On Arp2/3, the IC50 amounted to 61 µM and the “Arp2/3 inhibition reached at saturation” value is 67%. Moreover, in the series with MCF10A cells, the “Outcome of EdU incorporation screen” value is reported as “scored positive” and the IC50 is 50.5 µM.
